From PubChem BioAssay AID248 (DTP/NCI, 2004)
“And” between values parts separate entries of the source, which are not always exact repeats. Identical values can stand only once. Toxic doses and inconclusive results are not listed. Cut-off read from the data, not from the text of the source: active = T/C of 150% or more; inactive = T/C below 125%.

Tested on: L1210 leukemia ip in BDF1 mice, survival T/C
Assay: NCI In Vivo Anticancer Drug Screen. Data for tumor model L1210 Leukemia (intraperitoneal) in B6D2F1 (BDF1) mice
Settings: endpoint: mean survival time, higher = longer survival
Procedure, shortened: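 Read-out is survival time, reported as the treated-group measurement over the vehicle-control measurement.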

[1] = dose: 100.0 mg/kg/injection, schedule: Q01DX009 (ip), vehicle: saline with Tween-80
[2] = dose: 200.0 mg/kg/injection, schedule: Q01DX009 (ip), vehicle: saline with Tween-80
[3] = dose: 400.0 mg/kg/injection, schedule: Q01DX009 (ip), vehicle: saline with Tween-80
[4] = dose: 100.0 mg/kg/injection, schedule: Q01DX001 (ip), vehicle: saline
[5] = dose: 200.0 mg/kg/injection, schedule: Q01DX001 (ip), vehicle: saline
[6] = dose: 400.0 mg/kg/injection, schedule: Q01DX001 (ip), vehicle: saline
[7] = dose: 100.0 mg/kg/injection, schedule: Q01DX001 (ip), vehicle: carboxymethylcellulose (CMC)
[8] = dose: 200.0 mg/kg/injection, schedule: Q01DX001 (ip), vehicle: carboxymethylcellulose (CMC)
[9] = dose: 400.0 mg/kg/injection, schedule: Q01DX001 (ip), vehicle: carboxymethylcellulose (CMC)
[10] = dose: 100.0 mg/kg/injection, schedule: Q04DX003 (ip), vehicle: saline
[11] = dose: 100.0 mg/kg/injection, schedule: Q01DX009 (ip), vehicle: saline
[12] = dose: 200.0 mg/kg/injection, schedule: Q01DX009 (ip), vehicle: saline
[13] = dose: 200.0 mg/kg/injection, schedule: Q04DX003 (ip), vehicle: saline
[14] = dose: 400.0 mg/kg/injection, schedule: Q01DX009 (ip), vehicle: saline
[15] = dose: 400.0 mg/kg/injection, schedule: Q04DX003 (ip), vehicle: saline
[16] = dose: 50.0 mg/kg/injection, schedule: Q04DX003 (ip), vehicle: saline with Tween-80
[17] = dose: 100.0 mg/kg/injection, schedule: Q04DX003 (ip), vehicle: saline with Tween-80
[18] = dose: 200.0 mg/kg/injection, schedule: Q04DX003 (ip), vehicle: saline with Tween-80
[19] = dose: 200.0 mg/kg/injection, schedule: Q04DX002 (ip), vehicle: Klucel (hydroxypropylcellulose) (HPC)
[20] = dose: 100.0 mg/kg/injection, schedule: Q01DX009 (ip), vehicle: Klucel (hydroxypropylcellulose) (HPC)
[21] = dose: 100.0 mg/kg/injection, schedule: Q04DX003 (ip), vehicle: Klucel (hydroxypropylcellulose) (HPC)
[22] = dose: 200.0 mg/kg/injection, schedule: Q04DX003 (ip), vehicle: Klucel (hydroxypropylcellulose) (HPC)
[23] = dose: 400.0 mg/kg/injection, schedule: Q01DX009 (ip), vehicle: Klucel (hydroxypropylcellulose) (HPC)
[24] = dose: 400.0 mg/kg/injection, schedule: Q04DX003 (ip), vehicle: Klucel (hydroxypropylcellulose) (HPC)
[25] = dose: 400.0 mg/kg/injection, schedule: Q04DX003 (ip), vehicle: saline with Tween-80

Measured: T/C

Nc1ccccc1SC1CC(=O)N(c2ccccc2Cl)C1=O (stereo not given)
inactive: [1] 98 % of control | [2] 95 % of control | [3] 97 % of control

O=C(Nc1ccc2c3c(ccc(NC(=O)c4ccccc4)c13)C=C2)c1ccccc1
inactive: dose: 50.0 mg/kg/injection, schedule: Q01DX001 (ip), vehicle: saline 102 % of control | [4] 100 % of control | [5] 100 % of control | [6] 100 % of control

CC1([N+](=O)[O-])COP(=O)(O)OC1 (stereo not given) (tested in a mixture with another compound)
inactive: [7] 109 % of control | [4] 101 % of control [middle of 4 runs] | [8] 109 % of control | [5] 102 % of control [middle of 4 runs] | [9] 107 % of control | [6] 101 % of control and 102 % of control and 103 % of control

CN(C)C(=O)c1ccc[n+](Cc2ccc(Cl)c(Cl)c2)c1
inactive: [10] 88 % of control

Cc1ccc(NC(=O)/C=N/O)cc1C
inactive: [4] 104 % of control | [5] 102 % of control | [6] 90 % of control

Nc1cc(S(=O)(=O)O)cc2cc(S(=O)(=O)O)c(N=Nc3cc(S(=O)(=O)O)cc4cc(S(=O)(=O)O)cc(O)c34)c(O)c12
inactive: [11] 105 % of control | [10] 96 % of control | [12] 94 % of control | [13] 91 % of control | [14] 95 % of control | [15] 96 % of control

Cc1nc(N)[nH]c(=O)c1CCCCCN
inactive: [10] 101 % of control | [13] 106 % of control | [15] 100 % of control

O=C(O)CCCc1nccc2ccccc12
inactive: dose: 75.0 mg/kg/injection, schedule: Q01DX001 (ip), vehicle: saline 102 % of control | dose: 150.0 mg/kg/injection, schedule: Q01DX001 (ip), vehicle: saline 92 % of control

COC1=NCCCCC1
inactive: [16] 94 % of control | [17] 99 % of control | [18] 91 % of control

CC1=Nc2c(c(C(C)(C)C)c3nc(C)oc3c2C(C)(C)C)C1
inactive: dose: 100.0 mg/kg/injection, schedule: Q01DX001 (ip), vehicle: saline with Tween-80 97 % of control | dose: 200.0 mg/kg/injection, schedule: Q01DX001 (ip), vehicle: saline with Tween-80 94 % of control | dose: 400.0 mg/kg/injection, schedule: Q01DX001 (ip), vehicle: saline with Tween-80 94 % of control

Oc1ccc(O)c2c1C1(Cl)C(Cl)=C(Cl)C2(Cl)C1(Cl)Cl
inactive: dose: 100.0 mg/kg/injection, schedule: Q04DX003 (ip), vehicle: other 101 % of control | dose: 200.0 mg/kg/injection, schedule: Q04DX003 (ip), vehicle: other 101 % of control | dose: 400.0 mg/kg/injection, schedule: Q04DX003 (ip), vehicle: other 108 % of control

C#CCONC(=O)c1ccc(OC)cc1
inactive: dose: 25.0 mg/kg/injection, schedule: Q01DX009 (ip), vehicle: carboxymethylcellulose (CMC) 98 % of control | dose: 50.0 mg/kg/injection, schedule: Q01DX009 (ip), vehicle: carboxymethylcellulose (CMC) 98 % of control | dose: 100.0 mg/kg/injection, schedule: Q01DX009 (ip), vehicle: carboxymethylcellulose (CMC) 96 % of control

[O-][n+]1c2ccccc2nn1-c1ccccc1
inactive: [4] 95 % of control | [5] 96 % of control | [6] 97 % of control

O=C(c1ccccc1Br)N1CCN=C(c2ccccc2)C=C1c1ccccc1
inactive: [10] 93 % of control | [13] 94 % of control | [15] 100 % of control

O=C(COc1ccccc1)c1ccccc1
inactive: dose: 12.5 mg/kg/injection, schedule: Q04DX002 (ip), vehicle: Klucel (hydroxypropylcellulose) (HPC) 93 % of control | dose: 25.0 mg/kg/injection, schedule: Q04DX002 (ip), vehicle: Klucel (hydroxypropylcellulose) (HPC) 104 % of control | dose: 50.0 mg/kg/injection, schedule: Q04DX002 (ip), vehicle: Klucel (hydroxypropylcellulose) (HPC) 96 % of control | [19] 95 % of control

O=C(CCCCC(=O)N/N=C\c1ccccn1)N/N=C\c1ccccn1
inactive: [11] 98 % of control | [10] 96 % of control | [12] 89 % of control | [13] 107 % of control | [14] 100 % of control | [15] 89 % of control

CCOC(=O)CN1CC(C)(C)N(CC(=O)OCC)CC1(C)C
inactive: [7] 93 % of control | [8] 93 % of control | [9] 104 % of control

CCC(C)(C1CCC(O)CC1)C1CCC(O)CC1 (stereo not given)
inactive: [4] 94 % of control | [5] 96 % of control | [6] 98 % of control

O=C(O)COc1ccc(OCC(=O)O)cc1
inactive: [20] 97 % of control | [21] 95 % of control | dose: 200.0 mg/kg/injection, schedule: Q01DX009 (ip), vehicle: Klucel (hydroxypropylcellulose) (HPC) 89 % of control | [22] 95 % of control | [23] 89 % of control | [24] 92 % of control

Cc1cc2c(cc1C)C(O)C(N1CCN(C)CC1)CCC2 (stereo not given)
inactive: [16] 103 % of control | [17] 97 % of control | [18] 92 % of control

O=C(COc1ccc(Cl)cc1Cl)NC(O)C(Cl)(Cl)Cl (stereo not given)
inactive: [1] 94 % of control | [17] 100 % of control | [2] 87 % of control | [18] 97 % of control | [3] 89 % of control | [25] 94 % of control

CC1CCCN(C)C1 (stereo not given)
inactive: [20] 100 % of control | [21] 100 % of control | [22] 100 % of control | [24] 93 % of control

CCCCCCCCN1N=CC(CC)C1CCC (stereo not given)
inactive: dose: 50.0 mg/kg/injection, schedule: Q01DX001 (ip), vehicle: carboxymethylcellulose (CMC) 105 % of control | [7] 88 % of control | [8] 92 % of control

CCOP(=O)(OCC)c1ccc([N+](=O)[O-])cc1
inactive: [4] 87 % of control | [5] 89 % of control

Cc1cccc(Cl)c1NC(=O)c1c(Cl)c(Cl)c(Cl)c(Cl)c1C(=O)O
inactive: dose: 100.0 mg/kg/injection, schedule: Q04DX002 (ip), vehicle: Klucel (hydroxypropylcellulose) (HPC) 110 % of control | [19] 104 % of control

CC(C)(C)C1CCC(NC(=O)CCl)CC1 (stereo not given)
inactive: dose: 50.0 mg/kg/injection, schedule: Q04DX003 (ip), vehicle: Klucel (hydroxypropylcellulose) (HPC) 98 % of control | [20] 103 % of control | [21] 96 % of control | [22] 102 % of control | [23] 94 % of control | [24] 104 % of control

COC(=O)c1cc(C(C)=O)nc2ccccc12
inactive: [17] 94 % of control | [18] 99 % of control | [25] 90 % of control

CNCCNCC(Cc1ccccc1)c1ccccc1 (stereo not given)
inactive: dose: 25.0 mg/kg/injection, schedule: Q04DX002 (ip), vehicle: saline 107 % of control | dose: 50.0 mg/kg/injection, schedule: Q04DX002 (ip), vehicle: saline 97 % of control | dose: 100.0 mg/kg/injection, schedule: Q04DX002 (ip), vehicle: saline 97 % of control
